For the experiment, the system named is 596521-263-R-J1-PDC complex spheroid growth. Description: Anticancer human tumor 596521-263-R-J1-PDC patient-derived soft tissue sarcoma cell line growth inhibition [Asc]. Particulars: for viability, T/C: stronger effect = lower value. The method, boiled down:
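Complex spheroids combining tumor cells with HUVEC endothelial cells and human MSCs, at 37 degrees C, 5% CO2; agents tested alone or combined, half-log dilutions from at or near clinical Cmax, or 10 microM if Cmax unknown.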

“And” between values parts separate entries of the source, which are not always exact repeats. Identical values can stand only once. Where only a bound is given, the exact number is not on record here.
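Also: spheroids exposed to compounds for 7 days.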

A word on the IC50: it is the concentration needed to halve the response being measured. For orientation: viability, T/C means the result in the treated group divided by that in the control group, in per cent. Take `O=C(c1cc(Cc2n[nH]c(=O)c3ccccc23)ccc1F)N1CCN(C(=O)C2CC2)CC1` + Cc1c(S(C)(=O)=O)c(-c2cc(F)cc(N3CCN(c4ccc(NS(=O)(=O)c5ccc(NC(CCN6CCC(C(=O)OCCCP(=O)(O)O)CC6)CSc6ccccc6)c(S(=O)(=O)C(F)(F)F)c5)cc4)CC3)c2)c(-c2ccc(Cl)cc2)n1C(C)C: the IC50 runs as follows: (curve of first compound, second compound 0.0316 µM) above 10000 nM; (curve of first compound, second compound 0.1 µM) above 10000 nM; (curve of first compound, second compound 0.316 µM) 8230 nM; (curve of first compound, second compound 1 µM) 5330 nM; (curve of first compound, second compound 3.16 µM) 1380 nM; (curve of first compound, second compound 10 µM) below 31.6 nM. Also, the viability, T/C (second compound 0.0316 µM, first compound 0.0316 µM) was 100%; the viability, T/C (second compound 0.0316 µM, first compound 0.1 µM) was 95.7%; the viability, T/C (second compound 0.0316 µM, first compound 0.316 µM) is 88.8%; the viability, T/C (second compound 0.0316 µM, first compound 1 µM) was 89.3%; the viability, T/C (second compound 0.0316 µM, first compound 3.16 µM) was 85.7%; the viability, T/C (second compound 0.0316 µM, first compound 10 µM) was 59.4%. Moreover, the viability, T/C was 96.3% (second compound 0.1 µM, first compound 0.0316 µM); 102% (second compound 0.1 µM, first compound 0.1 µM); 86.4% (second compound 0.1 µM, first compound 0.316 µM); 98.2% (second compound 0.1 µM, first compound 1 µM); 76.2% (second compound 0.1 µM, first compound 3.16 µM); 54% (second compound 0.1 µM, first compound 10 µM). The viability, T/C runs as follows: (second compound 0.316 µM, first compound 0.0316 µM) 94%; (second compound 0.316 µM, first compound 0.1 µM) 92.8%; (second compound 0.316 µM, first compound 0.316 µM) 79.5%; (second compound 0.316 µM, first compound 1 µM) 85.9%; (second compound 0.316 µM, first compound 3.16 µM) 61.2%; (second compound 0.316 µM, first compound 10 µM) 47.5%. Further, the viability, T/C is, setting by setting: (second compound 1 µM, first compound 0.0316 µM) 78.8%; (second compound 1 µM, first compound 0.1 µM) 80.1%; (second compound 1 µM, first compound 0.316 µM) 68.3%; (second compound 1 µM, first compound 1 µM) 71.2%; (second compound 1 µM, first compound 3.16 µM) 61%; (second compound 1 µM, first compound 10 µM) 37.7%. The viability, T/C (second compound 3.16 µM, first compound 0.0316 µM) was 61%; the viability, T/C (second compound 3.16 µM, first compound 0.1 µM) is 63.8%; the viability, T/C (second compound 3.16 µM, first compound 0.316 µM) was 55.8%; the viability, T/C (second compound 3.16 µM, first compound 1 µM) was 56.5%; the viability, T/C (second compound 3.16 µM, first compound 3.16 µM) was 35.2%; the viability, T/C (second compound 3.16 µM, first compound 10 µM) is 22.1%. The viability, T/C is 52.7% (second compound 10 µM, first compound 0.0316 µM); 46.4% (second compound 10 µM, first compound 0.1 µM); 44.8% (second compound 10 µM, first compound 0.316 µM); 43.4% (second compound 10 µM, first compound 1 µM); 36.3% (second compound 10 µM, first compound 3.16 µM); 16.5% (second compound 10 µM, first compound 10 µM).

Turning to `CNC(C)C(=O)NC1CN(S(=O)(=O)c2cccc(S(=O)(=O)N3CCC4CCC(C(=O)NC(c5ccccc5)c5ccccc5)N4C(=O)C(NC(=O)C(C)NC)C3)c2)CCC2CCC(C(=O)NC(c3ccccc3)c3ccccc3)N2C1=O` (configuration not stated), the viability, T/C runs as follows: (compound 0.0316 µM) 89.6% [middle of 6 runs]; (compound 0.1 µM) 87.5% [middle of 6 runs]; (compound 1 µM) 77.4% [middle of 6 runs]. For the same compound, under “curve of compound”, the IC50 was above 1000 nM.

Turning to `C=C(F)C(=O)N1CCN(c2nc(OCC3CCCN3C)nc3c2CCN(c2cccc4cccc(Cl)c24)C3)CC1CC#N` (configuration not stated), the viability, T/C was 95.8% and 100% (compound 0.0316 µM); 100% and 95.2% (compound 0.1 µM); 98.3% and 103% (compound 0.316 µM); 99.6% and 123% (compound 1 µM); 89.5% and 80.2% (compound 3.16 µM); 0.48% and 3.4% (compound 10 µM). Also, the IC50 (curve of compound) was 5270 nM and 4970 nM.

Consider `CCN1CCN(Cc2ccc(Nc3ncc(F)c(-c4cc(F)c5nc(C)n(C(C)C)c5c4)n3)nc2)CC1` + CCN1C(C(=O)NC23CCC(C(=O)O)(CC2)CC3)C(c2cccc(Cl)c2F)C2(C(=O)Nc3cc(Cl)ccc32)C12CCCCC2, for which the IC50 was above 1000 nM (curve of first compound, second compound 0.00949 µM); above 1000 nM (curve of first compound, second compound 0.03 µM); above 1000 nM (curve of first compound, second compound 0.0949 µM); above 1000 nM (curve of first compound, second compound 0.3 µM); above 1000 nM (curve of first compound, second compound 0.949 µM); above 1000 nM (curve of first compound, second compound 3 µM). The viability, T/C is 100% (second compound 0.00949 µM, first compound 0.00316 µM); 96.6% (second compound 0.00949 µM, first compound 0.01 µM); 82.5% (second compound 0.00949 µM, first compound 0.0316 µM); 103% (second compound 0.00949 µM, first compound 0.1 µM); 97.5% (second compound 0.00949 µM, first compound 0.316 µM); 83.2% (second compound 0.00949 µM, first compound 1 µM). Also, the viability, T/C reads like this: (second compound 0.03 µM, first compound 0.00316 µM) 92.6%; (second compound 0.03 µM, first compound 0.01 µM) 96.9%; (second compound 0.03 µM, first compound 0.0316 µM) 96.8%; (second compound 0.03 µM, first compound 0.1 µM) 89.4%; (second compound 0.03 µM, first compound 0.316 µM) 110%; (second compound 0.03 µM, first compound 1 µM) 88%. For the same compound, the viability, T/C is, setting by setting: (second compound 0.0949 µM, first compound 0.00316 µM) 99.5%; (second compound 0.0949 µM, first compound 0.01 µM) 112%; (second compound 0.0949 µM, first compound 0.0316 µM) 96.1%; (second compound 0.0949 µM, first compound 0.1 µM) 85.5%; (second compound 0.0949 µM, first compound 0.316 µM) 93.6%; (second compound 0.0949 µM, first compound 1 µM) 86.7%. Further, the viability, T/C was 97.1% (second compound 0.3 µM, first compound 0.00316 µM); 93.5% (second compound 0.3 µM, first compound 0.01 µM); 90% (second compound 0.3 µM, first compound 0.0316 µM); 102% (second compound 0.3 µM, first compound 0.1 µM); 93.1% (second compound 0.3 µM, first compound 0.316 µM); 77.3% (second compound 0.3 µM, first compound 1 µM). For the same compound, the viability, T/C is 103% (second compound 0.949 µM, first compound 0.00316 µM); 93.2% (second compound 0.949 µM, first compound 0.01 µM); 103% (second compound 0.949 µM, first compound 0.0316 µM); 91.2% (second compound 0.949 µM, first compound 0.1 µM); 82.8% (second compound 0.949 µM, first compound 0.316 µM); 83.4% (second compound 0.949 µM, first compound 1 µM). For the same compound, the viability, T/C by setting is: (second compound 3 µM, first compound 0.00316 µM) 91.6%; (second compound 3 µM, first compound 0.01 µM) 102%; (second compound 3 µM, first compound 0.0316 µM) 89.9%; (second compound 3 µM, first compound 0.1 µM) 97.7%; (second compound 3 µM, first compound 0.316 µM) 98.5%; (second compound 3 µM, first compound 1 µM) 89.9%.

Consider `COc1c(OCCCN2CCOCC2)ccc2c3n(c(=NC(=O)c4cnc(N)nc4)nc12)CCN3`, for which the viability, T/C was 98.3% and 95.9% (compound 0.00316 µM); 88% and 87.8% (compound 0.01 µM); 71.1% and 82.2% (compound 0.0316 µM); 68% and 61.7% (compound 0.1 µM); 44.1% and 40% (compound 0.316 µM); 31.9% and 28.1% (compound 1 µM). Besides, the IC50 (curve of compound) was 254 nM and 188 nM.

For the origin of these results see PubChem BioAssay AID1963449 (Molecular Pharmacology Branch, DTP, NCI, 2024).
